According to patent US11357779B2 (G1 Therapeutics, Inc., priority 2018, dated 2022):

Assay: Plasma concentration versus time of Compound I and metabolite Compound III in patients dosed QD or BID with Form B of Compound II plus fulvestrant
Assay type: in vivo, human
Source text: Patients were enrolled into 1 of 2 parallel, independently operating, dose-escalation dosing cohorts with Form B of Compound II administered continuously either once daily (QD) or twice daily (BID) with food with fixed-dose fulvestrant (intramuscularly every 14 days for the first three injections and then every 28 days). Pre- or perimenopausal patients also received goserelin for the duration of study treatment. A […] agonist was started at least 28 days before the first dose of Form B, and those patients who were taking another LHRH agonist were switched to goserelin on Day 1. Patients were split into […] cohorts providing once a day (QD) dosing of 200 mg, 300 mg, 400 mg, 500 mg, or 650 mg of Form B, or twice a day (BID) dosing of 100 mg, 150 mg, or 200 mg of Form B. The second dose in BID cohorts was not administered in the evening until at least 12 hours after the initial morning dose of Form B. The dosing cohorts for Form B of Compound II are provided in Table 1.
Blood samples were collected at the following time points relative to the morning dose of Form B at Day 1 and at Day 29: pre-dose (0 hour) and 1, 2, 3, 4, 6, 8, 10, 12 (prior to the evening dose in the BID cohorts), and 24 (prior to the next day's morning dose) hours after dosing. A 5-minute time window was allowed for samples collected between the predose and 3 hours after Form B dosing. A 15-minute window was allowed for samples collected between 4 to 12 hours after Form B dosing. A 1-hour window was allowed for the sample collected 24 hours after Form B dosing. Blood samples for Compound I PK trough levels were collected pre-dose at Day 8, Day 15, and Day 22 prior to the morning administration of Compound I. Plasma concentrations of Compound I and its metabolite, Compound III, were measured using validated methods.
Analysis of plasma concentration versus time data for calculation of standard pharmacokinetic (PK) parameters following oral administration was conducted using Phoenix WinNonlin version 6.3 using actual blood sampling times.

[1] = Cohort 3, 400 mg QD of Form B, Day 8
[2] = Cohort 3, 400 mg QD of Form B, Day 15
[3] = Cohort 3, 400 mg QD of Form B, Day 22
[4] = Cohort 4, 500 mg QD of Form B, Day 8
[5] = Cohort 4, 500 mg QD of Form B, Day 15
[6] = Cohort 4, 500 mg QD of Form B, Day 22
[7] = Cohort 7, 150 mg BID of Form B, Day 29, 0.0 h
[8] = Cohort 7, 150 mg BID of Form B, Day 29, 1.0 h
[9] = Cohort 7, 150 mg BID of Form B, Day 29, 2.0 h
[10] = Cohort 7, 150 mg BID of Form B, Day 29, 3.0 h
[11] = Cohort 7, 150 mg BID of Form B, Day 29, 4.0 h
[12] = Cohort 7, 150 mg BID of Form B, Day 29, 6.0 h
[13] = Cohort 7, 150 mg BID of Form B, Day 29, 8.0 h
[14] = Cohort 7, 150 mg BID of Form B, Day 29, 10.0 h
[15] = Cohort 7, 150 mg BID of Form B, Day 29, 12.0 h

Question: Which “Trough Compound I Concentration” value (200 mg QD of Form B, Day 8, Mean) does the source give for `CC(C)N1CCN(c2ccc(Nc3ncc4cc5n(c4n3)C3(CCCCC3)CNC5=O)nc2)CC1` [Compound I, 2′-((5-(4-isopropylpiperazin-1-yl)pyridin-2-yl)amino)-7′,8′-dihydro-6′H-spiro[cyclohexane-1,9′-pyrazino[1′,2′:1,5]pyrrolo[2,3-d]pyrimidin]-6′-one] here?
Answer: The value was 4.93 ng/mL.

Question: And the “Trough Compound I Concentration” value (200 mg QD of Form B, Day 8, Median)?
Answer: The value was 4.22 ng/mL.

Question: What about the “Trough Compound I Concentration” value (200 mg QD of Form B, Day 15, Mean) of the same compound?
Answer: Its value is 5.56 ng/mL.

Question: What about the “Trough Compound I Concentration” value (200 mg QD of Form B, Day 15, Median) of the same compound?
Answer: Its value is 4.59 ng/mL.

Question: And the “Trough Compound I Concentration” value (200 mg QD of Form B, Day 22, Mean)?
Answer: Its value is 6.24 ng/mL.

Question: What about the “Trough Compound I Concentration” value (200 mg QD of Form B, Day 22, Median) of the same compound?
Answer: Its value is 5.32 ng/mL.

Question: And the “Trough Compound I Concentration” value (300 mg QD of Form B, Day 8, Mean)?
Answer: The value was 14.0 ng/mL.

Question: And the “Trough Compound I Concentration” value (300 mg QD of Form B, Day 8, Median)?
Answer: Its value is 17.3 ng/mL.

Question: What about the “Trough Compound I Concentration” value (300 mg QD of Form B, Day 15, Mean) of the same compound?
Answer: The value was 16.7 ng/mL.

Question: What about the “Trough Compound I Concentration” value (300 mg QD of Form B, Day 15, Median) of the same compound?
Answer: Its value is 19.9 ng/mL.

Question: What about the “Trough Compound I Concentration” value (300 mg QD of Form B, Day 22, Mean) of the same compound?
Answer: Its value is 16.4 ng/mL.

Question: And the “Trough Compound I Concentration” value (300 mg QD of Form B, Day 22, Median)?
Answer: The value was 10.9 ng/mL.

Question: What about the “Trough Compound I Concentration, Max” value [1] of the same compound?
Answer: Its value is 6.85 ng/mL.

Question: And the “Trough Compound I Concentration, Mean” value [1]?
Answer: The value was 5.63 ng/mL.

Question: And the “Trough Compound I Concentration, Median” value [1]?
Answer: The value was 6.16 ng/mL.

Question: What about the “Trough Compound I Concentration, Min” value [1] of the same compound?
Answer: The value was 3.87 ng/mL.

Question: And the “Trough Compound I Concentration, Max” value [2]?
Answer: The value was 10.2 ng/mL.

Question: What about the “Trough Compound I Concentration, Mean” value [2] of the same compound?
Answer: The value was 6.66 ng/mL.

Question: What about the “Trough Compound I Concentration, Median” value [2] of the same compound?
Answer: Its value is 5.33 ng/mL.

Question: And the “Trough Compound I Concentration, Min” value [2]?
Answer: The value was 4.46 ng/mL.

Question: What about the “Trough Compound I Concentration, Max” value [3] of the same compound?
Answer: The value was 11.7 ng/mL.

Question: And the “Trough Compound I Concentration, Mean” value [3]?
Answer: The value was 9.34 ng/mL.

Question: What about the “Trough Compound I Concentration, Median” value [3] of the same compound?
Answer: The value was 10.4 ng/mL.

Question: What about the “Trough Compound I Concentration, Min” value [3] of the same compound?
Answer: Its value is 5.91 ng/mL.

Question: And the “Trough Compound I Concentration, Mean” value [4]?
Answer: The value was 17.1 ng/mL.

Question: What about the “Trough Compound I Concentration, Min” value [4] of the same compound?
Answer: The value was 10.6 ng/mL.

Question: What about the “Trough Compound I Concentration, Mean” value [5] of the same compound?
Answer: The value was 23.8 ng/mL.

Question: And the “Trough Compound I Concentration, Min” value [5]?
Answer: The value was 14.5 ng/mL.

Question: And the “Trough Compound I Concentration, Mean” value [6]?
Answer: Its value is 19.8 ng/mL.

Question: What about the “Trough Compound I Concentration, Min” value [6] of the same compound?
Answer: Its value is 14.4 ng/mL.

Question: And the “Trough Compound I Concentration, Mean” value (Cohort 7, 150 mg BID of Form B, Day 15)?
Answer: Its value is 24.8 ng/mL.

Question: And the “Trough Compound I Concentration, Mean” value (Cohort 7, 150 mg BID of Form B, Day 22)?
Answer: Its value is 20.6 ng/mL.

Question: What about the “Compound I Concentration, Mean” value [7] of the same compound?
Answer: The value was 26.2 ng/mL.

Question: And the “Compound I Concentration, Min” value [7]?
Answer: Its value is 9.03 ng/mL.

Question: What about the “Compound I Concentration, Max” value [8] of the same compound?
Answer: The value was 57.0 ng/mL.

Question: And the “Compound I Concentration, Mean” value [8]?
Answer: Its value is 37.6 ng/mL.

Question: What about the “Compound I Concentration, Min” value [8] of the same compound?
Answer: Its value is 27.0 ng/mL.

Question: What about the “Compound I Concentration, Max” value [9] of the same compound?
Answer: Its value is 64.9 ng/mL.

Question: And the “Compound I Concentration, Mean” value [9]?
Answer: Its value is 41.3 ng/mL.

Question: And the “Compound I Concentration, Min” value [9]?
Answer: Its value is 24.6 ng/mL.

Question: What about the “Compound I Concentration, Max” value [10] of the same compound?
Answer: Its value is 76.6 ng/mL.

Question: And the “Compound I Concentration, Mean” value [10]?
Answer: The value was 46.0 ng/mL.

Question: And the “Compound I Concentration, Min” value [10]?
Answer: Its value is 25.7 ng/mL.

Question: What about the “Compound I Concentration, Max” value [11] of the same compound?
Answer: Its value is 83.2 ng/mL.

Question: And the “Compound I Concentration, Mean” value [11]?
Answer: Its value is 50.2 ng/mL.

Question: What about the “Compound I Concentration, Min” value [11] of the same compound?
Answer: The value was 30.5 ng/mL.

Question: And the “Compound I Concentration, Max” value [12]?
Answer: The value was 67.2 ng/mL.

Question: What about the “Compound I Concentration, Mean” value [12] of the same compound?
Answer: Its value is 38.0 ng/mL.

Question: And the “Compound I Concentration, Min” value [12]?
Answer: The value was 20.3 ng/mL.

Question: What about the “Compound I Concentration, Max” value [13] of the same compound?
Answer: Its value is 67.4 ng/mL.

Question: What about the “Compound I Concentration, Mean” value [13] of the same compound?
Answer: Its value is 36.7 ng/mL.

Question: What about the “Compound I Concentration, Min” value [13] of the same compound?
Answer: The value was 15.8 ng/mL.

Question: What about the “Compound I Concentration, Max” value [14] of the same compound?
Answer: The value was 59.7 ng/mL.

Question: What about the “Compound I Concentration, Mean” value [14] of the same compound?
Answer: Its value is 32.2 ng/mL.

Question: What about the “Compound I Concentration, Min” value [14] of the same compound?
Answer: The value was 13.0 ng/mL.

Question: What about the “Compound I Concentration, Max” value [15] of the same compound?
Answer: Its value is 58.1 ng/mL.

Question: And the “Compound I Concentration, Mean” value [15]?
Answer: The value was 28.5 ng/mL.

Question: What about the “Compound I Concentration, Min” value [15] of the same compound?
Answer: The value was 10.2 ng/mL.
